Experimental data taken from PMC5078040 (Oncotarget, 2016).

What was measured:
[1] = target: T1, ABL1(H396P)-nonphosphorylated (Homo sapiens, UniProt P00519, H396P); experiment: KinomeScan; format: binding; conditions: 1uM
T1 construct: purchased DiscoveRx KINOMEscan

[2] = target: T2, ABL1(H396P)-phosphorylated (Homo sapiens, UniProt P00519, H396P); experiment: KinomeScan; format: binding; conditions: 1uM
T2 construct: purchased DiscoveRx KINOMEscan

ACVR1B = target: T3, ACVR1B (Homo sapiens, UniProt P36896); experiment: KinomeScan; format: binding; conditions: 1uM
T3 construct: purchased DiscoveRx KINOMEscan
T3 sequence (P36896 24-505): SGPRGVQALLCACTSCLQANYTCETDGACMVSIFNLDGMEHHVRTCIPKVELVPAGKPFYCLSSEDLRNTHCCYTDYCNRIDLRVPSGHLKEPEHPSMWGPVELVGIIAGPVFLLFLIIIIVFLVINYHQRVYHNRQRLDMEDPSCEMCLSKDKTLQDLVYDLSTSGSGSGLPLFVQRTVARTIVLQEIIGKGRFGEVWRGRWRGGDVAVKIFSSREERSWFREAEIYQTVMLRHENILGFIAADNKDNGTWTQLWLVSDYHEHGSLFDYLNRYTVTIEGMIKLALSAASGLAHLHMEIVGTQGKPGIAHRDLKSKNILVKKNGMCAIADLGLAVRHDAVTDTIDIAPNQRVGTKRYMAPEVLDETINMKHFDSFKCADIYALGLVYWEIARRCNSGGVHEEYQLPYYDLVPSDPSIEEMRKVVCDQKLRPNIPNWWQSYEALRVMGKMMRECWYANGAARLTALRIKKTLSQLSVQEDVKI

AKT2 = target: T4, AKT2 (Homo sapiens, UniProt P31751); experiment: KinomeScan; format: binding; conditions: 1uM
T4 construct: purchased DiscoveRx KINOMEscan

ALK(C1156Y) = target: T5, ALK(C1156Y) (Homo sapiens, UniProt Q9UM73, C1156Y); experiment: KinomeScan; format: binding; conditions: 1uM
T5 construct: purchased DiscoveRx KINOMEscan

BMX = target: T6, BMX (Homo sapiens, UniProt P51813); experiment: KinomeScan; format: binding; conditions: 1uM
T6 construct: purchased DiscoveRx KINOMEscan

CAMK2B = target: T7, CAMK2B (Homo sapiens, UniProt Q13554); experiment: KinomeScan; format: binding; conditions: 1uM
T7 construct: purchased DiscoveRx KINOMEscan

CSNK1E = target: T8, CSNK1E (Homo sapiens, UniProt P49674); experiment: KinomeScan; format: binding; conditions: 1uM
T8 construct: purchased DiscoveRx KINOMEscan

DAPK1 = target: T9, DAPK1 (Homo sapiens, UniProt P53355); experiment: KinomeScan; format: binding; conditions: 1uM
T9 construct: purchased DiscoveRx KINOMEscan

DDR2 = target: T10, DDR2 (Homo sapiens, UniProt Q16832); experiment: KinomeScan; format: binding; conditions: 1uM
T10 construct: purchased DiscoveRx KINOMEscan

EGFR(L858R) = target: T11, EGFR(L858R) (Homo sapiens, UniProt P00533, L858R); experiment: KinomeScan; format: binding; conditions: 1uM
T11 construct: purchased DiscoveRx KINOMEscan

FGFR3(G697C) = target: T12, FGFR3(G697C) (Homo sapiens, UniProt P22607, G697C); experiment: KinomeScan; format: binding; conditions: 1uM
T12 construct: purchased DiscoveRx KINOMEscan

FLT1 = target: T13, FLT1 (Homo sapiens, UniProt P17948); experiment: KinomeScan; format: binding; conditions: 1uM
T13 construct: purchased DiscoveRx KINOMEscan
T13 sequence (P17948 27-1338): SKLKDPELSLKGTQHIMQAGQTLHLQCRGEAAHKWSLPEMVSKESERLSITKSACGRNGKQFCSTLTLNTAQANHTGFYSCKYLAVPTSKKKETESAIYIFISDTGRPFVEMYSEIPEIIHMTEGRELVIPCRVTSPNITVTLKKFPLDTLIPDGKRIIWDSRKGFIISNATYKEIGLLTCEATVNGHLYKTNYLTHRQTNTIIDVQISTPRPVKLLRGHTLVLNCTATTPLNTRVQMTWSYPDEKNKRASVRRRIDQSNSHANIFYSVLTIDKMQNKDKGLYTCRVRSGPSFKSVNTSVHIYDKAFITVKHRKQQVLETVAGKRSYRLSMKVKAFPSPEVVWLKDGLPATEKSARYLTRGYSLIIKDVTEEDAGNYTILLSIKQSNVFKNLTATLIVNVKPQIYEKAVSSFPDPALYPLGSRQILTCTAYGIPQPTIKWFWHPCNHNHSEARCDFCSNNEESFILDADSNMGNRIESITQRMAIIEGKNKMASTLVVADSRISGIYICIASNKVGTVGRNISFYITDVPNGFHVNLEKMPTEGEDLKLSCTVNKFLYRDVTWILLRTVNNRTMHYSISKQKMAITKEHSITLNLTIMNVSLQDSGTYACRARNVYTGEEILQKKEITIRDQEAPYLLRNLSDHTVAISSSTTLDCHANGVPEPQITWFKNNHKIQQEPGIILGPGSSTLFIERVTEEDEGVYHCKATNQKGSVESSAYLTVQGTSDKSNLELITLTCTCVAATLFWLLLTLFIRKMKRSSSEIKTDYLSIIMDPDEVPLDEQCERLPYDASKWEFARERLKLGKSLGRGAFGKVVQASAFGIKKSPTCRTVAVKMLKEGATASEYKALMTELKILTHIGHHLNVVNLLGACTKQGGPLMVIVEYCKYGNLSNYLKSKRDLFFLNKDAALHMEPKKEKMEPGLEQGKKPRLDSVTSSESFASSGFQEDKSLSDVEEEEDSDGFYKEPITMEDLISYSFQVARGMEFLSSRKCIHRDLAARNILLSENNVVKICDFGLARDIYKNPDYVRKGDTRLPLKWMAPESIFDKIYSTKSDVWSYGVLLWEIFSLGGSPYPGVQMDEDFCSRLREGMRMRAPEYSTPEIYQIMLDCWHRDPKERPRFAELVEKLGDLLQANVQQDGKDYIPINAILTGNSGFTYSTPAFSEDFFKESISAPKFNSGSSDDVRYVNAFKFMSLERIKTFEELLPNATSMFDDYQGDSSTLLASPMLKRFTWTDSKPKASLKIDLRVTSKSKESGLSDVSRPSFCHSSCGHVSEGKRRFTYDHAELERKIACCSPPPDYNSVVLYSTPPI

FLT3(K663Q) = target: T14, FLT3(K663Q) (Homo sapiens, UniProt P36888, K663Q); experiment: KinomeScan; format: binding; conditions: 1uM
T14 construct: purchased DiscoveRx KINOMEscan

FLT4 = target: T15, FLT4 (Homo sapiens, UniProt P35916); experiment: KinomeScan; format: binding; conditions: 1uM
T15 construct: purchased DiscoveRx KINOMEscan
T15 sequence (P35916 25-1363): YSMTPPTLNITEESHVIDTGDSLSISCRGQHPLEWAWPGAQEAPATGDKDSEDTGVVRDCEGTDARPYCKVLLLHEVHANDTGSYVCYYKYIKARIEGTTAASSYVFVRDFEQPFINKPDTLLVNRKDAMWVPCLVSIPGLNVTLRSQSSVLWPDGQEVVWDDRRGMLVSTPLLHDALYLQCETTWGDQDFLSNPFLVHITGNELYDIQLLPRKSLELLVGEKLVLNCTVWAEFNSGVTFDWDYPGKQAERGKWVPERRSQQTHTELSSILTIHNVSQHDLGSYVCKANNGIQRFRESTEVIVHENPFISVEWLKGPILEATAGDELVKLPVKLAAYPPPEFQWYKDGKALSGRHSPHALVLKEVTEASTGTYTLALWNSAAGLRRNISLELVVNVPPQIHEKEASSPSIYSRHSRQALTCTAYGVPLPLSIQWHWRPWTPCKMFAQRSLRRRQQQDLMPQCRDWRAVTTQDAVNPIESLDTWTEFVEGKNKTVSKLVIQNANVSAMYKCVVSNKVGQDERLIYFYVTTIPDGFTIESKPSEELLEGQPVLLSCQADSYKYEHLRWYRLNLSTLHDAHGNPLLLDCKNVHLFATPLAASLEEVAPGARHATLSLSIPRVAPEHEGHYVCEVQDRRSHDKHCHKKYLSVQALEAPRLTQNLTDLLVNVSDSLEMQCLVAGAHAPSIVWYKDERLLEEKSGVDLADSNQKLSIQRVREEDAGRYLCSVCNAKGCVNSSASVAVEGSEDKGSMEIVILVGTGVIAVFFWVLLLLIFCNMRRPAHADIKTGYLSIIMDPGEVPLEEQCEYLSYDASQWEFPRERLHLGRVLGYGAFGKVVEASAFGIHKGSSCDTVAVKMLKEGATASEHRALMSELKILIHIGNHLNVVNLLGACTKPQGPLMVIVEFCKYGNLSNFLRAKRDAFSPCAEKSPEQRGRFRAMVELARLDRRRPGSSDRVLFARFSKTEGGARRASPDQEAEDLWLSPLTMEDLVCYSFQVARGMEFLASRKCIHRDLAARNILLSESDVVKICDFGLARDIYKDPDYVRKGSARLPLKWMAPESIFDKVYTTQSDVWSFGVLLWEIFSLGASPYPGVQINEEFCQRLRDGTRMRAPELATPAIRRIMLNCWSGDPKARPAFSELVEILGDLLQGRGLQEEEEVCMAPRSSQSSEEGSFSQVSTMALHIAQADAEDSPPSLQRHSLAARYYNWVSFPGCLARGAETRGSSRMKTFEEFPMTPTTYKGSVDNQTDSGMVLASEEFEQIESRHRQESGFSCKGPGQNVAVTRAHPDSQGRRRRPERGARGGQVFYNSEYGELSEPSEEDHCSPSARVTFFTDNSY

HASPIN = target: T16, HASPIN (Homo sapiens, UniProt Q8TF76); experiment: KinomeScan; format: binding; conditions: 1uM
T16 construct: purchased DiscoveRx KINOMEscan

KIT(D816H) = target: T17, KIT(D816H) (Homo sapiens, UniProt P10721, D816H); experiment: KinomeScan; format: binding; conditions: 1uM
T17 construct: purchased DiscoveRx KINOMEscan

KIT(V559D,V654A) = target: T18, KIT(V559D,V654A) (Homo sapiens, UniProt P10721, V559D/V654A); experiment: KinomeScan; format: binding; conditions: 1uM
T18 construct: purchased DiscoveRx KINOMEscan

MEK4 = target: T19, MEK4 (Homo sapiens, UniProt P45985); experiment: KinomeScan; format: binding; conditions: 1uM
T19 construct: purchased DiscoveRx KINOMEscan

MET(M1250T) = target: T20, MET(M1250T) (Homo sapiens, UniProt P08581, M1250T); experiment: KinomeScan; format: binding; conditions: 1uM
T20 construct: purchased DiscoveRx KINOMEscan

MKNK1 = target: T21, MKNK1 (Homo sapiens, UniProt Q9BUB5); experiment: KinomeScan; format: binding; conditions: 1uM
T21 construct: purchased DiscoveRx KINOMEscan
T21 sequence (Q9BUB5 whole entry): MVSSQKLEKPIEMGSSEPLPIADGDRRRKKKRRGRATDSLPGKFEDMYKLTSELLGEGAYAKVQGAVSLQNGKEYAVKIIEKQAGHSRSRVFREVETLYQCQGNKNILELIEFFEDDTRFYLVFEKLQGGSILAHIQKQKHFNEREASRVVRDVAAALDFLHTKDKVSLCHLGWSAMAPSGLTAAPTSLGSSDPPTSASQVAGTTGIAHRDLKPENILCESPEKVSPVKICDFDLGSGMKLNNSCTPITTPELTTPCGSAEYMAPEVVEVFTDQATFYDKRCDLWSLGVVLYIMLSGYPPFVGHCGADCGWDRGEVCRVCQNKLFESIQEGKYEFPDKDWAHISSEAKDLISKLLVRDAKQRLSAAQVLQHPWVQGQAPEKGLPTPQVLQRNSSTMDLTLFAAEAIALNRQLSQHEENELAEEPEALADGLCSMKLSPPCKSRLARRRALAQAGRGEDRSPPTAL

MRCKA = target: T22, MRCKA (Homo sapiens, UniProt Q5VT25); experiment: KinomeScan; format: binding; conditions: 1uM
T22 construct: purchased DiscoveRx KINOMEscan

MST1 = target: T23, MST1 (Homo sapiens, UniProt Q13043); experiment: KinomeScan; format: binding; conditions: 1uM
T23 construct: purchased DiscoveRx KINOMEscan

NEK11 = target: T24, NEK11 (Homo sapiens, UniProt Q8NG66); experiment: KinomeScan; format: binding; conditions: 1uM
T24 construct: purchased DiscoveRx KINOMEscan

PFPK5(P.falciparum) = target: T25, PFPK5(P.falciparum) (Plasmodium falciparum, UniProt P61075); experiment: KinomeScan; format: binding; conditions: 1uM
T25 construct: purchased DiscoveRx KINOMEscan

PHKG2 = target: T26, PHKG2 (Homo sapiens, UniProt P15735); experiment: KinomeScan; format: binding; conditions: 1uM
T26 construct: purchased DiscoveRx KINOMEscan

PIK3CA(E545A) = target: T27, PIK3CA(E545A) (Homo sapiens, UniProt P42336, E545A); experiment: KinomeScan; format: binding; conditions: 1uM
T27 construct: purchased DiscoveRx KINOMEscan

PIP5K2B = target: T28, PIP5K2B (Homo sapiens, UniProt P78356); experiment: KinomeScan; format: binding; conditions: 1uM
T28 construct: purchased DiscoveRx KINOMEscan
T28 sequence (P78356 whole entry): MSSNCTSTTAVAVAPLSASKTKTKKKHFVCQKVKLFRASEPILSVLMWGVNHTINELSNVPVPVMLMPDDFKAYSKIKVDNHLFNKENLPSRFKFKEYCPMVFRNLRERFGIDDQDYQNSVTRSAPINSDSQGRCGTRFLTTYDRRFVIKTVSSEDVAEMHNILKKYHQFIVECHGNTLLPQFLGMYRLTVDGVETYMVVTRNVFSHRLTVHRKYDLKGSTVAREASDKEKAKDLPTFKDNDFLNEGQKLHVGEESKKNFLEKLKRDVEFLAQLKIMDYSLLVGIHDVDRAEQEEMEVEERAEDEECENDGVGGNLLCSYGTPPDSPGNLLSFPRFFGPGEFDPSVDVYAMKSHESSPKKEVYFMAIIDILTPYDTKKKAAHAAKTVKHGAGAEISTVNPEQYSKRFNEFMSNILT

[3] = target: RPS6KA4(Kin.Dom.2-C-terminal) (Homo sapiens, UniProt O75676); experiment: KinomeScan; format: binding; conditions: 1uM
Chain of RPS6KA4(Kin.Dom.2-C-terminal) (O75676 372-772 limits assumed): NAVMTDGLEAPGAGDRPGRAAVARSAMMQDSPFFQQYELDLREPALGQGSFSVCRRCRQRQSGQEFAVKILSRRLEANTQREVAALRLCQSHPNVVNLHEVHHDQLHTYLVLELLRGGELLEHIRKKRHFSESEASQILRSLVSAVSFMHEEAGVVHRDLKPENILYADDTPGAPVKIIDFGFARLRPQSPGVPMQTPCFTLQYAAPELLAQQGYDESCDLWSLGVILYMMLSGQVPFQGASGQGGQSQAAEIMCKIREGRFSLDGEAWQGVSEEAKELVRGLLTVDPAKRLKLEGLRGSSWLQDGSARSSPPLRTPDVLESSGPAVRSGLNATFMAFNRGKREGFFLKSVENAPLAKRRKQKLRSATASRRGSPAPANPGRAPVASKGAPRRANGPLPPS

[4] = target: T29, RPS6KA5(Kin.Dom.1-N-terminal) (Homo sapiens, UniProt O75582); experiment: KinomeScan; format: binding; conditions: 1uM
T29 construct: RPS6KA5(Kin.Dom.1-N-terminal); purchased DiscoveRx KINOMEscan

[5] = target: T30, RSK3(Kin.Dom.2-C-terminal) (Homo sapiens, UniProt Q15349); experiment: KinomeScan; format: binding; conditions: 1uM
T30 construct: RSK3(Kin.Dom.2-C-terminal); purchased DiscoveRx KINOMEscan

SGK3 = target: T31, SGK3 (Homo sapiens, UniProt Q96BR1); experiment: KinomeScan; format: binding; conditions: 1uM
T31 construct: purchased DiscoveRx KINOMEscan

TGFBR1 = target: T32, TGFBR1 (Homo sapiens, UniProt P36897); experiment: KinomeScan; format: binding; conditions: 1uM
T32 construct: purchased DiscoveRx KINOMEscan

TLK2 = target: T33, TLK2 (Homo sapiens, UniProt Q86UE8); experiment: KinomeScan; format: binding; conditions: 1uM
T33 construct: purchased DiscoveRx KINOMEscan

TTK = target: T34, TTK (Homo sapiens, UniProt P33981); experiment: KinomeScan; format: binding; conditions: 1uM
T34 construct: purchased DiscoveRx KINOMEscan

TYRO3 = target: T35, TYRO3 (Homo sapiens, UniProt Q06418); experiment: KinomeScan; format: binding; conditions: 1uM
T35 construct: purchased DiscoveRx KINOMEscan

WEE2 = target: T36, WEE2 (Homo sapiens, UniProt P0C1S8); experiment: KinomeScan; format: binding; conditions: 1uM
T36 construct: purchased DiscoveRx KINOMEscan
T36 sequence (P0C1S8 whole entry): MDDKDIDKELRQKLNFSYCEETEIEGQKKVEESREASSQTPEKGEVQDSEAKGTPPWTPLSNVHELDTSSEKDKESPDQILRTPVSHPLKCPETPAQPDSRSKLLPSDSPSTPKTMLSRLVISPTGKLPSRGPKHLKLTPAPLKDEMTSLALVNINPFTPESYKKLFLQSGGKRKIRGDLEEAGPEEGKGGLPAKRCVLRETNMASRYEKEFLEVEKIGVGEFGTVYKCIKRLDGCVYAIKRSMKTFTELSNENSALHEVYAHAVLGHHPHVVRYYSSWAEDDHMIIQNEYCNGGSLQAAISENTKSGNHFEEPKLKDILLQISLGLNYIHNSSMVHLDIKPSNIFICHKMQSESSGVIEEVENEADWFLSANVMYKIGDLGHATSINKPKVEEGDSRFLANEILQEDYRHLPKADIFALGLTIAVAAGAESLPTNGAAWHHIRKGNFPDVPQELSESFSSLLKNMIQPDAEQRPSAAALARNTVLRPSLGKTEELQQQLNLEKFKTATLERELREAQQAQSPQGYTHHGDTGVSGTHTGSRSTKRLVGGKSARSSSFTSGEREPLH

WNK1 = target: T37, WNK1 (Homo sapiens, UniProt Q9H4A3); experiment: KinomeScan; format: binding; conditions: 1uM
T37 construct: purchased DiscoveRx KINOMEscan

Vps34 = target: T38, Vps34 (Homo sapiens, UniProt Q8NEB9); experiment: ADP-glo biochemical assay
T38 construct: purchased Invitrogen
Protocol: The reaction in each tube was started immediately by adding ATP and kept going for an hour under 37°C. After the tube cooled for 5 minutes at room temperature, 5 μL solvent reactions were carried out in a 384-well plate. Then 5 μL of ADP-Glo™ reagent was added into each well to stop the reaction and consume the remaining ADP within 40 minutes. At the end, 10 μL of kinase detection reagent was added into the well and incubated for 30 minutes to produce a luminescence signal. Luminescence signal was measured with an automated plate reader (Perkin-Elmer Envision) and each measurement was performed in triplicate.

S6K phosphorylation = experiment: Signaling pathway effect examination (western blotting); format: cell-based, human; parameters: dose or concentration left out as unconfirmed; conditions: MOLM13, HT, Namalwa, MEC-1, MEC-2 cells
Protocol: The cells were collected and lysed, and cell lysates were analyzed by western blotting.

With `Cc1nc(NC(=O)[C@@H](N)C(C)C)sc1-c1cnc(Cl)c(NS(=O)(=O)c2ccccc2)c1` [PI3KD-IN-015] the “KinomeScan ABL1(H396P)-nonphosphorylated” value [1] was 100, the “KinomeScan ABL1(H396P)-phosphorylated” value [2] was 78 and the “KinomeScan ACVR1B” value (ACVR1B) was 85. For the same compound, the “KinomeScan AKT2” value (AKT2) was 86, the “KinomeScan ALK(C1156Y)” value (ALK(C1156Y)) was 100 and the “KinomeScan BMX” value (BMX) was 100. The “KinomeScan CAMK2B” value (CAMK2B) was 91, the “KinomeScan CSNK1E” value (CSNK1E) was 100 and the “KinomeScan DAPK1” value (DAPK1) was 98. The “KinomeScan DDR2” value (DDR2) was 96, the “KinomeScan EGFR(L858R)” value (EGFR(L858R)) was 100 and the “KinomeScan FGFR3(G697C)” value (FGFR3(G697C)) was 100. The “KinomeScan FLT1” value (FLT1) was 89, the “KinomeScan FLT3(K663Q)” value (FLT3(K663Q)) was 100 and the “KinomeScan FLT4” value (FLT4) was 93. For the same compound, the “KinomeScan HASPIN” value (HASPIN) was 94, the “KinomeScan KIT(D816H)” value (KIT(D816H)) was 92 and the “KinomeScan KIT(V559D,V654A)” value (KIT(V559D,V654A)) was 97. For the same compound, the “KinomeScan MEK4” value (MEK4) was 100, the “KinomeScan MET(M1250T)” value (MET(M1250T)) was 74 and the “KinomeScan MKNK1” value (MKNK1) was 100. For the same compound, the “KinomeScan MRCKA” value (MRCKA) was 94, the “KinomeScan MST1” value (MST1) was 83 and the “KinomeScan NEK11” value (NEK11) was 86. The “KinomeScan PFPK5(P.falciparum)” value (PFPK5(P.falciparum)) was 100, the “KinomeScan PHKG2” value (PHKG2) was 91 and the “KinomeScan PIK3CA(E545A)” value (PIK3CA(E545A)) was 5.2. The “KinomeScan PIP5K2B” value (PIP5K2B) was 100, the “KinomeScan RPS6KA4(Kin.Dom.2-C-terminal)” value [3] was 83 and the “KinomeScan RPS6KA5(Kin.Dom.1-N-terminal)” value [4] was 100. The “KinomeScan RSK3(Kin.Dom.2-C-terminal)” value [5] was 99, the “KinomeScan SGK3” value (SGK3) was 91 and the “KinomeScan TGFBR1” value (TGFBR1) was 97. The “KinomeScan TLK2” value (TLK2) was 100, the “KinomeScan TTK” value (TTK) was 96 and the “KinomeScan TYRO3” value (TYRO3) was 100. The “KinomeScan WEE2” value (WEE2) was 100, the “KinomeScan WNK1” value (WNK1) was 100 and the IC50 (Vps34) was 280 nM. The S6K phosphorylation (S6K phosphorylation) was “significantly decreased”.
